Square brackets hold non-standard residues; d marks the D form. Peptide text beside a SMILES is read from it. * marks the point of attachment. Palmitoyl = CCCCCCCCCCCCCCCC(=O)*; Myristoyl = CCCCCCCCCCCCCC(=O)*; Lauroyl = CCCCCCCCCCCC(=O)*; Decanoyl = CCCCCCCCCC(=O)*; Nle = CCCC[C@H](N)C(=O)O; Octanoyl = CCCCCCCC(=O)*
Assays:
rat PrRP receptor = target: T1, rat PrRP receptor (Rattus norvegicus, UniProt Q64121); experiment: Competitive binding in RC-4B/C rat pituitary cells (125I-rat PrRP31); details: affinity relative to PrRP31
T1 construct: host or cells: RC-4B/C rat pituitary cell line
T1 sequence (Q64121 1-370): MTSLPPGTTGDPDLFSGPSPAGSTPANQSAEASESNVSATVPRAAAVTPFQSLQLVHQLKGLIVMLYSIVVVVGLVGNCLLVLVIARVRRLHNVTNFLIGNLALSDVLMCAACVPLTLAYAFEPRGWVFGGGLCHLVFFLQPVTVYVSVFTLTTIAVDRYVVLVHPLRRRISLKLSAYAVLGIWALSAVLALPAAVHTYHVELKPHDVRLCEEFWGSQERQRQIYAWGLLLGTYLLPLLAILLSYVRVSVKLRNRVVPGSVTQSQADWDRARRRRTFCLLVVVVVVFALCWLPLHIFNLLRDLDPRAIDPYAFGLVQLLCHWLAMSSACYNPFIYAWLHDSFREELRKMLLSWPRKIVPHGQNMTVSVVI
Procedure, shortened: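 Displacement of rat 125I-PrRP31 ([…]) by test analogs, 10^−11–10^−4 mol·l^−1, on whole RC-4B/C cells, 60 min RT. Bound counts measured by γ-counter in duplicate, ≥3 repeats, analyzed by nonlinear one-site binding regression.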

[1] = target: T2, human PrRP receptor GPR10 (Homo sapiens, UniProt P49683); experiment: Competitive binding in CHO cells transfected with human GPR10 (human 125I-PrRP31); details: affinity relative to PrRP31
T2 construct: host or cells: CHO cells
T2 sequence (P49683 1-370): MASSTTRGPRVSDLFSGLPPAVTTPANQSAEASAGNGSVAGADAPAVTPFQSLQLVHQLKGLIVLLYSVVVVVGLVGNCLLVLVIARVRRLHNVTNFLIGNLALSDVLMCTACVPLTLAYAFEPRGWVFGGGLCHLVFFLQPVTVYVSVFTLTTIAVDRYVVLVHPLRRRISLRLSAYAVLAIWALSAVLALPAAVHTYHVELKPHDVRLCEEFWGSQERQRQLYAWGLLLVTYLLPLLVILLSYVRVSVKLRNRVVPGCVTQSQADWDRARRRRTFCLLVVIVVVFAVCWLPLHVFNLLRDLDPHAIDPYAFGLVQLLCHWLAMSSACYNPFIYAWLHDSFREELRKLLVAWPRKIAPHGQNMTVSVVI
Procedure, shortened: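 Values from one-site nonlinear regression of displacement curves: analogs (final 10^-11 to 10^-4 mol·l^-1) competed with 125I-PrRP31 (final 5×10^-11 mol·l^-1) on adherent human GPR10 CHO cells. Binding ran 1 h at room temperature, pH 7.4 buffer with NaCl, MgCl2, CaCl2, glucose, BSA; cell-bound radioactivity counted after NaOH lysis.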

C57BL/6 mice = experiment: Food intake in fasted mice after SC injection; type: in vivo; details: 5 mg/kg SC, 45 min after injection
Method: NMRI mice, C57BL/6 mice, and Wistar rats (AnLab, Prague, Czech Republic) were housed in a temperature of 23° C. and a daily cycle of 12 h light and dark (light from 6:00). They were given ad libitum water and a standard chow diet that contained 25, 9 and 66% of calories of protein, fat and carbohydrate respectively. Energy content of the feed was 3.4 kcal/g (St-1, Mlýn Kocanda, Czech Republic). Db/db mice and their controls (C57BL/6 background) were obtained from Taconic (Denmark), housed under the same conditions as described above, and fed by Altromin (Taconic, Denmark). ZDF-Lepr^fa/Crl, diabetic fa/fa male rats were obtained from Charles River (France), housed under same conditions as described above, and fed with a Purina 5008 diet (IPS Product Supplies Limited, UK). All experiments followed the ethical guidelines for animal experiments and the law of the Czech Republic Nr. 246/1992.
In experiments with C57BL/6 mice or Wistar rats, food intake was measured with overnight fasted animals in individual cages. Food was withdrawn 17 hours prior to injection of lipidated analog of prolactin releasing peptide (PrRP); free access to water was maintained. The administration of either saline, PrRP, or lipidated analogs was performed by SC injection at doses of 1-10 mg/kg (which corresponded to a volume of 0.2 ml/mouse and 0.1 ml/100 g weight of rat). Fifteen minutes after the lipidated analog of prolactin releasing peptide (PrRP) administration, the mice were given pre-weighed food. The food was then weighed every 30 minutes for 5-10 hours. The administration of each dose was performed at least twice, and each group of mice consisted of at least 6 mice.

Row | SMILES | % of PrRP31, RC-4B/C rat pituitary cells (rat PrRP receptor) [%] | % of PrRP31, GPR10 human receptor transfected in CHO cells [1] [%] | Food intake in mice % of saline-treated group (C57BL/6 mice) [%]
1 | CCCC[C@H](NC(=O)[C@H](CO)NC(=O)[C@H](Cc1c[nH]cn1)NC(=O)[C@H](CCC(N)=O)NC(=O)[C@H](Cc1c[nH]cn1)NC(=O)[C@H](C)NC(=O)[C@H](CCCNC(=N)N)NC(=O)[C@@H](N)CO)C(=O)N[C@@H](CCC(=O)O)C(=O)N[C@H](C(=O)N[C@@H](CCCNC(=N)N)C(=O)N[C@H](C(=O)N1CCC[C@H]1C(=O)N[C@@H](CC(=O)O)C(=O)N[C@H](C(=O)N[C@@H](CC(N)=O)C(=O)N1CCC[C@H]1C(=O)N[C@@H](C)C(=O)N[C@@H](Cc1c[nH]c2ccccc12)C(=O)N[C@@H](Cc1ccc(O)cc1)C(=O)N[C@H](C(=O)NCC(=O)N[C@@H](CCCNC(=N)N)C(=O)NCC(=O)N[C@H](C(=O)N[C@@H](CCCNC(=N)N)C(=O)N1CCC[C@H]1C(=O)N[C@H](C(=O)NCC(=O)N[C@@H](CCCNC(=N)N)C(=O)N[C@@H](Cc1ccccc1)C(N)=O)C(C)C)[C@@H](C)CC)[C@@H](C)O)[C@@H](C)CC)[C@@H](C)O)[C@@H](C)O [Analog 3] (H-SRAHQHS[Nle]ETRTPDINPAWYTGRGIRPVGRF-NH2) | 385 | 203 | 100
2 | CCCCCCCC(=O)N[C@@H](CO)C(=O)N[C@@H](CCCNC(=N)N)C(=O)N[C@@H](C)C(=O)N[C@@H](Cc1c[nH]cn1)C(=O)N[C@@H](CCC(N)=O)C(=O)N[C@@H](Cc1c[nH]cn1)C(=O)N[C@@H](CO)C(=O)N[C@@H](CCCC)C(=O)N[C@@H](CCC(=O)O)C(=O)N[C@H](C(=O)N[C@@H](CCCNC(=N)N)C(=O)N[C@H](C(=O)N1CCC[C@H]1C(=O)N[C@@H](CC(=O)O)C(=O)N[C@H](C(=O)N[C@@H](CC(N)=O)C(=O)N1CCC[C@H]1C(=O)N[C@@H](C)C(=O)N[C@@H](Cc1c[nH]c2ccccc12)C(=O)N[C@@H](Cc1ccc(O)cc1)C(=O)N[C@H](C(=O)NCC(=O)N[C@@H](CCCNC(=N)N)C(=O)NCC(=O)N[C@H](C(=O)N[C@@H](CCCNC(=N)N)C(=O)N1CCC[C@H]1C(=O)N[C@H](C(=O)NCC(=O)N[C@@H](CCCNC(=N)N)C(=O)N[C@@H](Cc1ccccc1)C(N)=O)C(C)C)[C@@H](C)CC)[C@@H](C)O)[C@@H](C)CC)[C@@H](C)O)[C@@H](C)O [Analog 4] (Octanoyl-SRAHQHS[Nle]ETRTPDINPAWYTGRGIRPVGRF-NH2) | 503 | 254 | 94
3 | CCCCCCCCCC(=O)N[C@@H](CO)C(=O)N[C@@H](CCCNC(=N)N)C(=O)N[C@@H](C)C(=O)N[C@@H](Cc1c[nH]cn1)C(=O)N[C@@H](CCC(N)=O)C(=O)N[C@@H](Cc1c[nH]cn1)C(=O)N[C@@H](CO)C(=O)N[C@@H](CCCC)C(=O)N[C@@H](CCC(=O)O)C(=O)N[C@H](C(=O)N[C@@H](CCCNC(=N)N)C(=O)N[C@H](C(=O)N1CCC[C@H]1C(=O)N[C@@H](CC(=O)O)C(=O)N[C@H](C(=O)N[C@@H](CC(N)=O)C(=O)N1CCC[C@H]1C(=O)N[C@@H](C)C(=O)N[C@@H](Cc1c[nH]c2ccccc12)C(=O)N[C@@H](Cc1ccc(O)cc1)C(=O)N[C@H](C(=O)NCC(=O)N[C@@H](CCCNC(=N)N)C(=O)NCC(=O)N[C@H](C(=O)N[C@@H](CCCNC(=N)N)C(=O)N1CCC[C@H]1C(=O)N[C@H](C(=O)NCC(=O)N[C@@H](CCCNC(=N)N)C(=O)N[C@@H](Cc1ccccc1)C(N)=O)C(C)C)[C@@H](C)CC)[C@@H](C)O)[C@@H](C)CC)[C@@H](C)O)[C@@H](C)O [Analog 5] (Decanoyl-SRAHQHS[Nle]ETRTPDINPAWYTGRGIRPVGRF-NH2) | 758 | 266 | 57
4 | CCCCCCCCCCCC(=O)N[C@@H](CO)C(=O)N[C@@H](CCCNC(=N)N)C(=O)N[C@@H](C)C(=O)N[C@@H](Cc1c[nH]cn1)C(=O)N[C@@H](CCC(N)=O)C(=O)N[C@@H](Cc1c[nH]cn1)C(=O)N[C@@H](CO)C(=O)N[C@@H](CCCC)C(=O)N[C@@H](CCC(=O)O)C(=O)N[C@H](C(=O)N[C@@H](CCCNC(=N)N)C(=O)N[C@H](C(=O)N1CCC[C@H]1C(=O)N[C@@H](CC(=O)O)C(=O)N[C@H](C(=O)N[C@@H](CC(N)=O)C(=O)N1CCC[C@H]1C(=O)N[C@@H](C)C(=O)N[C@@H](Cc1c[nH]c2ccccc12)C(=O)N[C@@H](Cc1ccc(O)cc1)C(=O)N[C@H](C(=O)NCC(=O)N[C@@H](CCCNC(=N)N)C(=O)NCC(=O)N[C@H](C(=O)N[C@@H](CCCNC(=N)N)C(=O)N1CCC[C@H]1C(=O)N[C@H](C(=O)NCC(=O)N[C@@H](CCCNC(=N)N)C(=O)N[C@@H](Cc1ccccc1)C(N)=O)C(C)C)[C@@H](C)CC)[C@@H](C)O)[C@@H](C)CC)[C@@H](C)O)[C@@H](C)O [Analog 6] (Lauroyl-SRAHQHS[Nle]ETRTPDINPAWYTGRGIRPVGRF-NH2) | 1264 | 327 | 22
5 | CCCCCCCCCCCCCC(=O)N[C@@H](CO)C(=O)N[C@@H](CCCNC(=N)N)C(=O)N[C@@H](C)C(=O)N[C@@H](Cc1c[nH]cn1)C(=O)N[C@@H](CCC(N)=O)C(=O)N[C@@H](Cc1c[nH]cn1)C(=O)N[C@@H](CO)C(=O)N[C@@H](CCCC)C(=O)N[C@@H](CCC(=O)O)C(=O)N[C@H](C(=O)N[C@@H](CCCNC(=N)N)C(=O)N[C@H](C(=O)N1CCC[C@H]1C(=O)N[C@@H](CC(=O)O)C(=O)N[C@H](C(=O)N[C@@H](CC(N)=O)C(=O)N1CCC[C@H]1C(=O)N[C@@H](C)C(=O)N[C@@H](Cc1c[nH]c2ccccc12)C(=O)N[C@@H](Cc1ccc(O)cc1)C(=O)N[C@H](C(=O)NCC(=O)N[C@@H](CCCNC(=N)N)C(=O)NCC(=O)N[C@H](C(=O)N[C@@H](CCCNC(=N)N)C(=O)N1CCC[C@H]1C(=O)N[C@H](C(=O)NCC(=O)N[C@@H](CCCNC(=N)N)C(=O)N[C@@H](Cc1ccccc1)C(N)=O)C(C)C)[C@@H](C)CC)[C@@H](C)O)[C@@H](C)CC)[C@@H](C)O)[C@@H](C)O [Analog 7] (Myristoyl-SRAHQHS[Nle]ETRTPDINPAWYTGRGIRPVGRF-NH2) | 714 | 548 | 3
6 | CCCCCCCCCCCCCCCC(=O)N[C@@H](CO)C(=O)N[C@@H](CCCNC(=N)N)C(=O)N[C@@H](C)C(=O)N[C@@H](Cc1c[nH]cn1)C(=O)N[C@@H](CCC(N)=O)C(=O)N[C@@H](Cc1c[nH]cn1)C(=O)N[C@@H](CO)C(=O)N[C@@H](CCCC)C(=O)N[C@@H](CCC(=O)O)C(=O)N[C@H](C(=O)N[C@@H](CCCNC(=N)N)C(=O)N[C@H](C(=O)N1CCC[C@H]1C(=O)N[C@@H](CC(=O)O)C(=O)N[C@H](C(=O)N[C@@H](CC(N)=O)C(=O)N1CCC[C@H]1C(=O)N[C@@H](C)C(=O)N[C@@H](Cc1c[nH]c2ccccc12)C(=O)N[C@@H](Cc1ccc(O)cc1)C(=O)N[C@H](C(=O)NCC(=O)N[C@@H](CCCNC(=N)N)C(=O)NCC(=O)N[C@H](C(=O)N[C@@H](CCCNC(=N)N)C(=O)N1CCC[C@H]1C(=O)N[C@H](C(=O)NCC(=O)N[C@@H](CCCNC(=N)N)C(=O)N[C@@H](Cc1ccccc1)C(N)=O)C(C)C)[C@@H](C)CC)[C@@H](C)O)[C@@H](C)CC)[C@@H](C)O)[C@@H](C)O [Analog 8] (Palmitoyl-SRAHQHS[Nle]ETRTPDINPAWYTGRGIRPVGRF-NH2) | 967 | 128 | 7

— patent publication US10350271B2, “Lipidated peptides for lowering blood glucose” (USTAV ORGANICKE CHEMIE A BIOCHEMIE AKADEMIE VED CR, V.V.I., priority 2014, dated 2019)
